These results are taken from patent publication US20160361311A1, “LIGANDS THAT TARGET HEPATITIS C VIRUS E2 PROTEIN” (AMERICAN UNIVERSITY OF CAIRO, priority 2014, published 2016).

Broadly, the IC50 is the midpoint of a concentration-inhibition curve.

Assay [1] addresses T1, recombinant E2 protein (Hepatitis C virus genotype 1b, UniProt Q9WMX2).
T1 construct: encoding amino acids 384-656 of the Con1 envelope protein 2 ectodomain (eE2); made in house; host or cells: HEK293T cells (lentiviral, secreted)
As to the kind of experiment: Surface plasmon resonance (Biacore T100) binding to recombinant E2 immobilized on CM5 chip. As to conditions: for Binding (RU): 200 μM ligand in PBS, 3 min association; for Dissociation 1 (RU): response remaining 10 sec after rinsing with buffer; for Dissociation 2 (RU): response remaining 50 sec after rinsing with buffer; for rate of ligand dissociation (in words): compared to the other ligands. From the text: A construct containing the sequence encoding amino acids 384-656 of the Con1 envelope protein 2 ectodomain (eE2), a genoptype 1 E2 sequence, was cloned into a lentiviral expression vector with a carboxy-terminal Protein A tag separated by a PreScission Protease cleavage consensus sequence. eE2-ProtA was stably expressed in HEK293T cells using lentiviral infection. The protein was secreted into the media and supernatants were purified using IgG Sepharose (GE Healthcare, Piscataway, N.J.). eE2-ProtA was eluted with 100 mM sodium citrate and 20 mM KCl at pH 3 directly into tubes containing 1M Tris pH 9 for immediate neutralization. PreScission Protease was added to the eluted sample at a ratio of 1:50 (enzyme:eE2), and the digest was then dialyzed into 20 mM HEPES pH 7.5, 250 mM NaCl, 5% glycerol. eE2 was separated from the cleaved tag and the PreScission Protease by ion exchange chromatography.
The set of 34 of the ligands predicted by AutoDock to bind to E2 were tested experimentally to determine if they bind to recombinant E2 protein immobilized on a chip using surface Plasmon resonance. The SPR analyses were performed using a Biacore T100 workstation (GE Healthcare, NJ, USA) and Prot-A-tagged HCV E2 protein. 1 μM ProtA-HCV E2 was diluted into 10 mM sodium acetate buffer pH 5 and immobilized for 15 min at a flow speed of 5 μl/min onto a CM5 sensor chip using amine coupling (EDC-NHS). Approximately 10,000 response units (RU) of protein were immobilized on the chip. His-CD81-LEL (Bioclone-CA/USA) binding to HCV E2 was tested prior to injecting the ligands to confirm the E2 protein was functional and would bind CD81-LEL. In a typical experiment with CD81, […] of his-CD81 in 114 μl PBS was injected into channel 2 and 106.4 RUs of CD81 bound to the E2 on the chip. This was followed by testing the binding of the 34 virtual screening hits where the ligands were prepared as 200 μM solutions in PBS and they were introduced to the protein using a pre-programmed 3 min association and 1 min dissociation interval. The response was measured at two time points during dissociation, 10 and 50 seconds, to obtain information on the rate of ligand dissociation from E2. Twenty-three of the ligands predicted by AutoDock to bind to E2 were observed by SPR to bind to the recombinant protein (Table 2). The measured responses for the ligands that bound varied from 54 to 276 RUs. Data was also obtained on the rate of ligand dissociation by measuring the amount of ligand remaining bound at two time points, dissociation 1 (10 seconds) and dissociation 2 (50 seconds), during the rinsing of the chip with buffer (FIG. 8). The majority of the ligands dissociated quickly, as one might expect for small molecules that bind to the surface of a protein.
In general terms: SPR reads the build-up and loss of mass on a sensor chip optically.

The test system of assay [2] is RD114pp. Put plainly: RD114pp infection of Huh-7 cells (luciferase). It is filed as cell-based, feline endogenous virus RD114. As to conditions: read-out: IC50 RD114pp. How it is done: (§1) Pseudotyped retroviral particles harboring HCV envelope proteins (HCVpp) from different genotypes were produced as described previously. A plasmid encoding the feline endogenous virus RD114 glycoprotein [35] was used for the production of RD114pp. Both HCVpp and RD114pp expressed Firefly luciferase.
(§2) To identify ligands that inhibit HCV infection, Huh-7 cells were seeded in 96-well plates and treated the day after with six different concentrations of each ligand diluted in DMSO in duplicate using a Zephyr automated liquid handling workstation (Caliper BioSciences, Hopkinton, Mass.). The final concentration of DMSO (1%) was adjusted to be the same for all ligand concentrations. Cells treated with DMSO were used as negative controls. Cells treated with different concentrations of anti-CD81 (JS-81 from BD Pharmingen, San Jose, Calif.) 1 hour before infection, were also used as positive controls. The third day, RD114pp, HCVpp or HCVcc were inoculated and incubated for 30 hours at 37° C. Firefly and Gaussia luciferase assays were performed as indicated by the manufacturer (Promega, San Luis Obispo, Calif.).
Pseudotyped retroviral particles harboring the envelope protein of an endogenous feline retrovirus (RD114pp) were first used to determine the specificity and the safety of molecules.

Assay [3] concerns HCVpp 2a. Put plainly: HCVpp 2a infection of Huh-7 cells, 96-well (luciferase). It is filed as cell-based, HCV. The following applies: Hepatitis C virus, Huh-7, 30 h, read-out: IC50 HCVpp. As to the method:
as §1, §2
(§3) The remaining ligands were next tested against pseudotyped retroviral particles harboring genotype-2a HCV envelope proteins (HCVpp 2a), cell culture produced HCV particles (HCVcc) or RD114pp. As a positive control, an anti-CD81 antibody was used in parallel.

Assay [4] concerns HCVcc. As to the kind of experiment: HCVcc infection of Huh-7 cells (Gaussia luciferase). It is filed as cell-based, HCV. The following applies: Hepatitis C virus, Huh-7, 30 h, read-out: IC50 HCVcc. How it is done: The cell culture-produced HCV particles (HCVcc) used in this study were based on the JFH1 strain [36] and were prepared as described previously. They were engineered to express the A4 epitope, titer-enhancing mutations and Gaussia luciferase.
as §2, §3

The mark [5] stands for this setting: Feline endogenous virus RD114, Huh-7, 30 h.

Each structure is given as a SMILES string. Where two headings read alike, the source gives them in different places.

T1 sequence (Q9WMX2 384-656): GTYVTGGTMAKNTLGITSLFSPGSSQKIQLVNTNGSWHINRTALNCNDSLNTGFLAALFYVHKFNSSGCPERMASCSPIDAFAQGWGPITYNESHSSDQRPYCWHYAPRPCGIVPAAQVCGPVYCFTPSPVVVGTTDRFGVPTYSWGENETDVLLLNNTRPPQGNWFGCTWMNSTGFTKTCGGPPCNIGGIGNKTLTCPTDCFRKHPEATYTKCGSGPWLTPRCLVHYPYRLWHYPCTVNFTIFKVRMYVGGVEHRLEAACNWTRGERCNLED

Regarding `NC(=O)C(=Cc1ccncc1)c1cccc2ccccc12` (stereo in doubt) [Ligand 144694, (E)-2-naphthalen-1-yl-3-pyridin-4-ylprop-2-enamide], the “Binding (RU)” value in assay [1] is recorded as 118.8 RU. The “Dissociation 1 (RU)” value in assay [1] worked out at 6 RU. The “Dissociation 2 (RU)” value in assay [1] came out at 2.3 RU. In addition, the IC50 in assay [2] (setting [5]), in assay [3] and in assay [4] was over 10 µM in each case.
On to `NC1=N/C(=N\c2ccccc2)N[C@H](c2ccccc2)N1` [Ligand 3076, (4R)-6-N,4-diphenyl-1,4-dihydro-1,3,5-triazine-2,6-diamine], for which, in assay [1], the “Binding (RU)” value turned out to be 92.2 RU, the “Dissociation 1 (RU)” value is recorded as 3.2 RU and the “Dissociation 2 (RU)” value amounted to 1.6 RU. Further, in assay [2] (setting [5]), the IC50 came to 0.25 µM.
In the case of `Nc1nc(N)nc(-c2ccccc2-c2nc(N)nc(N)n2)n1` [Ligand 4429, 6-[2-(4,6-diamino-1,3,5-triazin-2-yl)phenyl]-1,3,5-triazine-2,4-diamine], in assay [1], the “Binding (RU)” value stood at 155.3 RU, the “rate of ligand dissociation (in words)” value is given as “slower off rates”, the “Dissociation 1 (RU)” value is on record as 28.9 RU and the “Dissociation 2 (RU)” value is recorded as 14.2 RU. Moreover, in assay [2] (setting [5]), the IC50 was over 10 µM. In addition, the IC50 in assay [3] is over 10 µM. Besides, the IC50 in assay [4] was over 10 µM.
In the case of `O=[N+]([O-])c1cc([N+](=O)[O-])c2cccnc2c1O` [Ligand 57103], in assay [1], the “Binding (RU)” value turned out to be 81.6 RU, the “rate of ligand dissociation (in words)” value is reported as “slower off rates”, the “Dissociation 1 (RU)” value was 11.4 RU and the “Dissociation 2 (RU)” value is listed as 2.5 RU. For the same molecule, the half-maximal inhibitory concentration (IC50) in assay [2] (setting [5]) turned out to be 0.3 µM.
On to `CC12CCC3C(CCC4Cc5[nH]c6ccccc6c5CC43C)C1CCC2O` (centres unmarked) [Ligand 60785], for which, in assay [1], the “Binding (RU)” value came out at 70.4 RU, the “Dissociation 1 (RU)” value was 2.8 RU and the “Dissociation 2 (RU)” value was 0.6 RU. Moreover, the IC50 in assay [2] (setting [5]) is 3.5 µM.
With `C1C[C@H]2NCC[C@@H]3NCC[C@H](N1)N32` [Ligand 81462], in assay [1], the “Binding (RU)” value worked out at 57.2 RU, the “rate of ligand dissociation (in words)” value is “slower off rates”, the “Dissociation 1 (RU)” value stood at 9.2 RU and the “Dissociation 2 (RU)” value was 6.5 RU. Besides, in assay [2] (setting [5]), the IC50 is over 10 µM. In addition, the IC50 in assay [3] is over 10 µM. In assay [4], the IC50 was over 10 µM.
Take `c1ccc(-c2ccc3c(c2)N[C@H]([C@H]2Nc4cc(-c5ccccc5)ccc4O2)O3)cc1` [Ligand 84100, (2S)-5-phenyl-2-[(2S)-5-phenyl-2,3-dihydro-1,3-benzoxazol-2-yl]-2,3-dihydro-1,3-benzoxazole]: the “Binding (RU)” value in assay [1] is listed as 71.2 RU. For the same molecule, the “Dissociation 1 (RU)” value in assay [1] was determined as 4.2 RU. The “Dissociation 2 (RU)” value in assay [1] is on record as 2.2 RU. The IC50 in assay [2] (setting [5]), in assay [3] and in assay [4] was over 10 µM in each case.
`C[C@]12CC[C@@H]3c4ccc(OCC(=O)O)cc4CC[C@H]3[C@@H]1CCC2=O` [Ligand 86467, 2-[[(8R,9S,13S,14S)-13-methyl-17-oxo-7,8,9,11,12,14,15,16-octahydro-6H-cyclopenta[a]phenanthren-3-yl]oxy]acetate]: in assay [1], the “binding to recombinant E2 protein by SPR (in words)” value is given as “bound”, the “Binding (RU)” value is 54.9 RU, the “Dissociation 1 (RU)” value stood at 1.9 RU and the “Dissociation 2 (RU)” value was 0.8 RU. In assay [2] (setting [5]), the IC50 was over 10 µM. For the same molecule, the IC50 in assay [3] was over 10 µM. Also, the IC50 in assay [4] is over 10 µM.
Regarding `Cc1nc(/N=C(\N)N(C)C)[nH]c(=O)c1C` [Ligand 113486, 2-(5,6-dimethyl-4-oxo-1H-pyrimidin-2-yl)-1,1-dimethylguanidine], the “Binding (RU)” value in assay [1] was determined as 104.7 RU. For the same molecule, the “Dissociation 1 (RU)” value in assay [1] was determined as 7 RU. Further, in assay [1], the “Dissociation 2 (RU)” value is listed as 2.6 RU. Moreover, the IC50 in assay [2] (setting [5]), in assay [3] and in assay [4] was over 10 µM throughout.
For `NC1=N[C@@H](c2ccc(Cl)cc2)N(c2ccc(S(N)(=O)=O)cc2)C(N)=N1` [Ligand 117268], the “Binding (RU)” value in assay [1] is on record as 88.5 RU. In addition, the “Dissociation 1 (RU)” value in assay [1] was found to be 4.1 RU. The “Dissociation 2 (RU)” value in assay [1] is 1.2 RU. In addition, the IC50 was 0.1 µM in assay [2] (setting [5]), over 10 µM in assay [3] and over 10 µM in assay [4].
On to `O=C(O)C[C@H]1OCC=C2CN3CC[C@]45c6ccccc6N[C@H]4[C@H]1[C@H]2C[C@H]35` [Ligand 121861], for which, in assay [1], the “binding to recombinant E2 protein by SPR (in words)” value is “bound”, the “Binding (RU)” value amounted to 88.4 RU, the “rate of ligand dissociation (in words)” value is listed as “slower off rates” and the “Dissociation 1 (RU)” value was 26.1 RU. Further, in assay [1], the “Dissociation 2 (RU)” value worked out at 20.4 RU. Further, the IC50 in assay [2] (setting [5]) was over 10 µM. The IC50 in assay [3] was over 10 µM. The IC50 in assay [4] is over 10 µM.
With `CC1(C)N=C(N)N=C(N)N1c1ccc(OCCCOc2ccccc2)c(Cl)c1` [Ligand 133071, 3-[3-chloro-4-(3-phenoxypropoxy)phenyl]-4,4-dimethyl-1H-1,3,5-triazin-3-ium-2,6-diamine], in assay [1], the “Binding (RU)” value amounted to 276.3 RU, the “Dissociation 1 (RU)” value was 1.8 RU and the “Dissociation 2 (RU)” value is reported as −2 RU. The IC50 in assay [2] (setting [5]) was 0.1 µM.
In the same order, the values of `Cc1ccc([N+](=O)[O-])cc1NC(=O)Nc1ccc(S(N)(=O)=O)cc1` [Ligand 146554, 1-(2-methyl-5-nitrophenyl)-3-(4-sulfamoylphenyl)urea] are 63.4 RU, 3.1 RU, 0.8 RU and over 10 µM.
The matching figures for `COc1ccc(C2=C[C@@H](c3ccc(OC)c(OC)c3)c3c(c4ccccc4oc3=O)O2)cc1OC` [Ligand 211490, (4S)-2,4-bis(3,4-dimethoxyphenyl)-4H-pyrano[3,2-c]chromen-5-one]: 102.9 RU, 6.1 RU, 2.1 RU and 0.5 µM.
For `CC[C@@]1(O)C(=O)OCc2c1cc1n(c2=O)Cc2cc3c(NC(=O)CN)cccc3nc2-1.Cl` [Ligand 639174], in assay [1], the “Binding (RU)” value was determined as 55.4 RU, the “Dissociation 1 (RU)” value was determined as 2.3 RU and the “Dissociation 2 (RU)” value is recorded as 0.6 RU. Besides, in assay [2] (Huh-7 cells, 30 hours), the IC50 is 0.03 µM.
For `O=C1CCCc2cc3c(cc21)CC1(C3)Cc2cc3c(cc2C1)C(=O)CCC3` [Ligand 670283, 2,2′-spirobi[3,6,7,8-tetrahydro-1H-cyclopenta[g]naphthalene]-5,5′-dione], in assay [1], the “Binding (RU)” value is listed as 54.3 RU, the “Dissociation 1 (RU)” value turned out to be 4 RU and the “Dissociation 2 (RU)” value was 1.4 RU. Also, the IC50 in assay [2] (setting [5]) stood at 3 µM.
